Test results taken from patent publication US6737383B1, “Herbicidal oxadiazolidines” (priority 1999, dated 2004).

Legend:
crabgrass = experiment: Test B pre/postemergence crabgrass; type: in vivo, Digitaria sanguinalis
Outline: (§1)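 Herbicidal effect was estimated by eye on a ten-point control scale after plants spent twelve to sixteen days in a greenhouse following soil or foliar treatment. Foliar sprays targeted plants at one to four leaves; all doses were formulated in a non-phytotoxic solvent with surfactant.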

pigweed = experiment: Test B pre/postemergence pigweed; type: in vivo, Amaranthus retroflexus; settings: for Plant response rating, Redroot pigweed: scale of 0 to 10 where 0 is no effect and 10 is complete control
Outline: as §1

wild oat = experiment: Test B pre/postemergence wild oat; type: in vivo, Avena fatua; settings: for Plant response rating, Wild oats: scale of 0 to 10 where 0 is no effect and 10 is complete control
Outline: as §1

surinam grass = experiment: Test B pre/postemergence surinam grass; type: in vivo, Brachiaria decumbens
Outline: as §1

bedstraw = experiment: Test B pre/postemergence bedstraw; type: in vivo, Galium aparine; settings: Postemergence
Outline: as §1

morningglory = experiment: Test B pre/postemergence morningglory; type: in vivo, Ipomoea hederacea; settings: for Plant response rating, Morningglory: scale of 0 to 10 where 0 is no effect and 10 is complete control
Outline: as §1

rice = experiment: Test B flood test rice; type: in vivo, Oryza sativa
Outline: (§2)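 Each value is a visual injury score relative to controls, with 10 meaning complete control and 0 no effect. Evaluation took place twelve to sixteen days after the 2-leaf-stage plants were treated and kept in the greenhouse.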

wheat = experiment: Test B pre/postemergence wheat; type: in vivo, Triticum aestivum; settings: for Plant response rating, Wheat: scale of 0 to 10 where 0 is no effect and 10 is complete control
Outline: as §1

smallflower flatsedge = experiment: Test B flood test smallflower flatsedge; type: in vivo, Cyperus difformis
Outline: as §2

corn = experiment: Test B pre/postemergence corn; type: in vivo, Zea mays
Outline: as §1

bamyardgrass = experiment: Test B flood test barnyardgrass; type: in vivo, Echinochloa crus-galli
Outline: as §2

blackgrass = experiment: Test B pre/postemergence blackgrass; type: in vivo, Alopecurus myosuroides
Outline: as §1

soybean = experiment: Test B pre/postemergence soybean; type: in vivo, Glycine max; settings: for Plant response rating, Soybean: scale of 0 to 10 where 0 is no effect and 10 is complete control
Outline: as §1

giant foxtail = experiment: Test B pre/postemergence giant foxtail; type: in vivo, Setaria faberii
Outline: as §1

velvetleaf = experiment: Test B pre/postemergence velvetleaf; type: in vivo, Abutilon theophrasti; settings: for Plant response rating, Velvetleaf: scale of 0 to 10 where 0 is no effect and 10 is complete control
Outline: as §1

cocklebur = experiment: Test B pre/postemergence cocklebur; type: in vivo, Xanthium strumarium
Outline: as §1

[1] = Postemergence, Rate 250 g/ha, scale 0 to 10
[2] = Postemergence, Rate 500 g/ha, scale of 0 to 10 where 0 is no effect and 10 is complete control
[3] = Preemergence, Rate 62 g/ha, scale of 0 to 10 where 0 is no effect and 10 is complete control
[4] = Preemergence, Rate 125 g/ha, scale of 0 to 10 where 0 is no effect and 10 is complete control
[5] = Preemergence, Rate 250 g/ha, scale 0 to 10, 0 is no effect, 10 is complete control
[6] = Preemergence, Rate 500 g/ha, scale 0 to 10, 0 is no effect, 10 is complete control
[7] = Rate 62 g/ha, Postemergence, scale 0 to 10 (0 no effect, 10 complete control)
[8] = Rate 125 g/ha, Postemergence, scale 0 to 10, 0 is no effect, 10 is complete control
[9] = Rate 62 g/ha, flood test species, Pre-emergence, visual evaluation after twelve to sixteen days
[10] = Rate 125 g/ha, under heading Pre-emergence, flood test species, visual evaluation after twelve to sixteen days
[11] = Rate 250 g/ha, Pre-emergence (flood test species), scale 0 to 10, 0 is no effect, 10 is complete control
[12] = Rate 500 g/ha, Pre-emergence, flood test species, scale 0 to 10 (0 no effect, 10 complete control)

With CC(C)N(C(=O)n1oc(=O)n(CCCl)c1=O)c1ccccc1 [Compound 469] the “Crabgrass plant response rating” value (crabgrass; [1]) was 9, the “Crabgrass plant response rating” value (crabgrass; [2]) was 9 and the “Plant response rating, Crabgrass” value (crabgrass; [3]) was 9. The “Plant response rating, Crabgrass” value (crabgrass; [4]) was 10, the “Crabgrass plant response rating” value (crabgrass; [5]) was 10 and the “Crabgrass plant response rating” value (crabgrass; [6]) was 10. The “Crabgrass plant response rating” value (crabgrass; [7]) was 3, the “Crabgrass plant response rating” value (crabgrass; [8]) was 6 and the “Redroot pigweed plant response rating” value (pigweed; [1]) was 2. For the same molecule, the “Plant response rating, Redroot pigweed” value (pigweed; Preemergence, Rate 62 g/ha) was 5, the “Plant response rating, Redroot pigweed” value (pigweed; Preemergence, Rate 125 g/ha) was 10 and the “Redroot pigweed plant response rating” value (pigweed; [5]) was 10. The “Redroot pigweed plant response rating” value (pigweed; [6]) was 10, the “Redroot pigweed plant response rating” value (pigweed; [7]) was 0 and the “Redroot pigweed plant response rating” value (pigweed; [8]) was 0. The “Wild oats plant response rating” value (wild oat; [1]) was 3, the “Plant response rating, Wild oats” value (wild oat; Preemergence, Rate 62 g/ha) was 7 and the “Plant response rating, Wild oats” value (wild oat; Preemergence, Rate 125 g/ha) was 7. The “Wild oats plant response rating” value (wild oat; [5]) was 10, the “Wild oats plant response rating” value (wild oat; [6]) was 10 and the “Wild oats plant response rating” value (wild oat; [7]) was 0. For the same molecule, the “B. signalgrass plant response rating” value (surinam grass; Postemergence, Rate 250 g/ha, scale 0 to 10, 0 no effect, 10 complete control) was 2, the “B. signalgrass plant response rating” value (surinam grass; [2]) was 6 and the “Plant response rating, B. signalgrass” value (surinam grass; [3]) was 3. For the same molecule, the “Plant response rating, B. signalgrass” value (surinam grass; [4]) was 7, the “B. signalgrass plant response rating” value (surinam grass; [5]) was 7 and the “B. signalgrass plant response rating” value (surinam grass; [6]) was 10. For the same molecule, the “B. signalgrass plant response rating” value (surinam grass; [7]) was 0, the “B. signalgrass plant response rating” value (surinam grass; [8]) was 2 and the “Bedstraw plant response rating” value (bedstraw; Rate 250 g/ha, scale 0 to 10) was 6. The “Bedstraw plant response rating” value (bedstraw; Rate 500 g/ha, scale of 0 to 10 where 0 is no effect and 10 is complete control) was 6, the “Bedstraw plant response rating” value (bedstraw; Rate 62 g/ha, scale 0 to 10 (0 no effect, 10 complete control)) was 0 and the “Morningglory plant response rating” value (morningglory; [1]) was 10. For the same molecule, the “Plant response rating, Morningglory” value (morningglory; Preemergence, Rate 62 g/ha) was 0, the “Plant response rating, Morningglory” value (morningglory; Preemergence, Rate 125 g/ha) was 0 and the “Morningglory plant response rating” value (morningglory; [5]) was 0. The “Morningglory plant response rating” value (morningglory; [6]) was 1, the “Morningglory plant response rating” value (morningglory; [7]) was 9 and the “Morningglory plant response rating” value (morningglory; [8]) was 9. For the same molecule, the “Plant response rating, Rice (0 to 10 scale, 0 is no effect, 10 is complete control)” value (rice; [9]) was 0, the “Rice plant response rating (0 to 10 scale, 0 is no effect, 10 is complete control)” value (rice; [10]) was 0 and the “Rice plant response rating” value (rice; [11]) was 0. The “Rice plant response rating” value (rice; [12]) was 0, the “Wheat plant response rating” value (wheat; [1]) was 3 and the “Plant response rating, Wheat” value (wheat; Preemergence, Rate 62 g/ha) was 0. For the same molecule, the “Plant response rating, Wheat” value (wheat; Preemergence, Rate 125 g/ha) was 2, the “Wheat plant response rating” value (wheat; [5]) was 3 and the “Wheat plant response rating” value (wheat; [6]) was 6. The “Wheat plant response rating” value (wheat; [7]) was 0, the “Wheat plant response rating” value (wheat; [8]) was 0 and the “Plant response rating, S. Flatsedge (0 to 10 scale, 0 is no effect, 10 is complete control)” value (smallflower flatsedge; [9]) was 0. For the same molecule, the “S. Flatsedge plant response rating (0 to 10 scale, 0 is no effect, 10 is complete control)” value (smallflower flatsedge; [10]) was 0, the “S. Flatsedge plant response rating” value (smallflower flatsedge; [11]) was 0 and the “S. Flatsedge plant response rating” value (smallflower flatsedge; [12]) was 0. For the same molecule, the “Corn plant response rating” value (corn; [1]) was 2, the “Corn plant response rating” value (corn; [2]) was 4 and the “Plant response rating, Corn” value (corn; [3]) was 0. The “Plant response rating, Corn” value (corn; [4]) was 2, the “Corn plant response rating” value (corn; [5]) was 8 and the “Corn plant response rating” value (corn; [6]) was 9. For the same molecule, the “Corn plant response rating” value (corn; [7]) was 0, the “Corn plant response rating” value (corn; [8]) was 0 and the “Plant response rating, Barnyardgrass (0 to 10 scale, 0 is no effect, 10 is complete control)” value (bamyardgrass; [9]) was 0. The “Barnyardgrass plant response rating (0 to 10 scale, 0 is no effect, 10 is complete control)” value (bamyardgrass; [10]) was 0, the “Barnyardgrass plant response rating” value (bamyardgrass; [11]) was 0 and the “Barnyardgrass plant response rating” value (bamyardgrass; [12]) was 0. For the same molecule, the “Blackgrass plant response rating” value (blackgrass; [1]) was 9, the “Blackgrass plant response rating” value (blackgrass; [2]) was 9 and the “Plant response rating, Blackgrass” value (blackgrass; [3]) was 6. The “Plant response rating, Blackgrass” value (blackgrass; [4]) was 8, the “Blackgrass plant response rating” value (blackgrass; [5]) was 9 and the “Blackgrass plant response rating” value (blackgrass; [6]) was 10. The “Blackgrass plant response rating” value (blackgrass; [7]) was 7, the “Blackgrass plant response rating” value (blackgrass; [8]) was 7 and the “Soybean plant response rating” value (soybean; [1]) was 4. The “Plant response rating, Soybean” value (soybean; Preemergence, Rate 62 g/ha) was 0, the “Plant response rating, Soybean” value (soybean; Preemergence, Rate 125 g/ha) was 0 and the “Soybean plant response rating” value (soybean; [5]) was 0. The “Soybean plant response rating” value (soybean; [6]) was 2, the “Soybean plant response rating” value (soybean; [7]) was 0 and the “Soybean plant response rating” value (soybean; [8]) was 1. The “Giant foxtail plant response rating” value (giant foxtail; [1]) was 9, the “Giant foxtail plant response rating” value (giant foxtail; [2]) was 9 and the “Plant response rating, Giant foxtail” value (giant foxtail; [3]) was 9. For the same molecule, the “Plant response rating, Giant foxtail” value (giant foxtail; [4]) was 10, the “Giant foxtail plant response rating” value (giant foxtail; [5]) was 10 and the “Giant foxtail plant response rating” value (giant foxtail; [6]) was 10. For the same molecule, the “Giant foxtail plant response rating” value (giant foxtail; [7]) was 8, the “Giant foxtail plant response rating” value (giant foxtail; [8]) was 9 and the “Velvetleaf plant response rating” value (velvetleaf; [1]) was 0. The “Plant response rating, Velvetleaf” value (velvetleaf; Preemergence, Rate 62 g/ha) was 4, the “Plant response rating, Velvetleaf” value (velvetleaf; Preemergence, Rate 125 g/ha) was 5 and the “Velvetleaf plant response rating” value (velvetleaf; [5]) was 6. For the same molecule, the “Velvetleaf plant response rating” value (velvetleaf; [6]) was 7, the “Velvetleaf plant response rating” value (velvetleaf; [7]) was 0 and the “Velvetleaf plant response rating” value (velvetleaf; [8]) was 0. For the same molecule, the “Cocklebur plant response rating” value (cocklebur; [1]) was 0, the “Cocklebur plant response rating” value (cocklebur; [2]) was 3 and the “Plant response rating, Cocklebur” value (cocklebur; [3]) was 0. The “Plant response rating, Cocklebur” value (cocklebur; [4]) was 0, the “Cocklebur plant response rating” value (cocklebur; [5]) was 0 and the “Cocklebur plant response rating” value (cocklebur; [6]) was 0. The “Cocklebur plant response rating” value (cocklebur; [7]) was 0 and the “Cocklebur plant response rating” value (cocklebur; [8]) was 0.
